Results: publication PMC9558423 (Molecular nutrition & food research, 2020)
Read-outs that look alike come from different tables or passages of the source. Marks after values point to notes of the source that are not given here.

Key:
[1] = rat, in vivo, 350 mg/kg
[2] = for Plasma AUC: plasma 0–48h, trapezoidal; for Qualitative Tmax (blood collection with greatest plasma level): blood every 6h, np = no peak; for Cmax / AUC / Tmax: plasma
[3] = for Qualitative Tmax (urine collection with greatest excretion): 12h urine collections, np = no peak; for Cmax (nmol excreted) / Tmax: urine; for Cmax (nmol excreted): mean ± SD; for Time of maximal urinary excretion after dosing: as stated in text/figure legend, doses not separated; for Tmax: female, Sprague Dawley, rat, po
[4] = High dose (1000 mg/kg bw), mean ± SD
[5] = Low dose (75 mg/kg bw), mean ± SD
[6] = female, Sprague Dawley, rat, po, 75 mg/kg
[7] = female, Sprague Dawley, rat, po, 350 mg/kg
[8] = female, Sprague Dawley, rat, po, 1000 mg/kg
[9] = Medium dose (350 mg/kg bw), mean ± SD

Plasma AUC [2, 4] | Qualitative Tmax (urine collection with greatest excretion) ([3]; Low dose (75 mg/kg bw)) | Cmax (nmol excreted) ([3]; Low dose (75 mg/kg bw)) | Cmax (nmol excreted) ([3]; Medium dose (350 mg/kg bw)) | Qualitative Tmax (blood collection with greatest plasma level) ([2]; Low dose (75 mg/kg bw)) | Cmax [2, 5] | AUC [2, 6] [µM·h] | AUC [2, 7] [µM·h] | Cmax [2, 7] [nM] | Tmax [2, 7] [h] | AUC [2, 8] [µM·h] | Cmax [2, 8] [nM] | Tmax [2, 8] [h] | Cmax (nmol excreted) ([3]; High dose (1000 mg/kg bw)) | Time of maximal urinary excretion after dosing [3] [h] | Tmax ([3]; 350 mg/kg) [h] | Tmax ([3]; 1000 mg/kg) [h] | Compound | Qualitative Tmax (urine collection with greatest excretion) ([3]; High dose (1000 mg/kg bw)) [h] | Qualitative Tmax (urine collection with greatest excretion) ([3]; Medium dose (350 mg/kg bw)) [h] | further results
 |  |  |  |  |  |  |  |  |  |  |  |  |  |  |  |  | COc1ccc(-c2oc3cc(O)cc(O)c3c(=O)c2O)cc1O [4-OMe-quercetin, 4-methoxyquercetin] |  |  | Qualitative Tmax (urine collection with greatest excretion) [1]: 0 to 12 h
 | np | np | 700 ± 78 | np | np | 25.8 ± 3.08 | 47.7 ± 5.13 | 1540 ± 510 | 12 | 74.3 ± 7.54 | 2060 ± 806 | 24 to 36 | 598 ± 146 | 12 to 24 | 12 to 24 | 12 to 24 | O=C(O)CNC(=O)c1ccccc1 [Hippuric acid, hippuric acid] |  |  | Amount excreted in urine, medium vs high dose ([3]; medium (350) vs high (1000 mg/kg bw) dose): no difference
 | np | np | 0.72 ± 0.14 | np | np | 0.32 ± 0.01 | 0.34 ± 0.05 | 8 ± 2 | 6 | 0.57 ± 0.14 | 23 ± 5 | 6 | 1.83 ± 0.28 |  | 0 to 12 | 0 to 12 | O=C(O)[C@H]1O[C@@H](Oc2c(-c3ccc(O)c(O)c3)oc3cc(O)cc(O)c3c2=O)[C@H](O)[C@@H](O)[C@@H]1O [Quercetin glucuronide, quercetin-3-O-glucuronide] |  |  | 
trace |  | 1.03 ± 0.30 nmol excreted | 12.2 ± 3.0 |  |  |  |  |  |  |  |  |  | 35.1 ± 6.0 | ≤ 12 | 0 to 12 | 0 to 12 | COc1cc(C(=O)O)cc(OC)c1O [Syringic acid, syringic acid] |  |  | Tmax ([3]; 75 mg/kg): 0 to 12 h
0.92 ± 0.20 ^y uM*h | np | np | 261 ± 50 | np | np |  |  |  |  |  |  |  | 379 ± 134 |  |  |  | Caffeic acid glucuronide | 0 to 12 | 0 to 12 | Qualitative Tmax (blood collection with greatest plasma level) ([2]; High dose (1000 mg/kg bw)): 6 h; Cmax [2, 4]: 84 ± 20 nM; Plasma AUC [2, 5]: 0.36 ± 0.06 ^w uM*h; Qualitative Tmax (blood collection with greatest plasma level) ([2]; Medium dose (350 mg/kg bw)): 6 h; Plasma AUC [2, 9]: 0.55 ± 0.11 ^x uM*h; Cmax [2, 9]: 21 ± 8 nM

Compound | Plasma AUC [2, 4] | Qualitative Tmax (urine collection with greatest excretion) ([3]; Low dose (75 mg/kg bw)) | Cmax (nmol excreted) ([3]; Low dose (75 mg/kg bw)) | Cmax (nmol excreted) ([3]; Medium dose (350 mg/kg bw)) | Qualitative Tmax (blood collection with greatest plasma level) ([2]; Low dose (75 mg/kg bw)) | Cmax [2, 5] | AUC [2, 6] [µM·h] | AUC [2, 7] [µM·h] | Cmax [2, 7] [nM] | Tmax [2, 7] [h] | AUC [2, 8] [µM·h] | Cmax [2, 8] [nM] | Tmax [2, 8] [h] | Cmax (nmol excreted) ([3]; High dose (1000 mg/kg bw)) | Time of maximal urinary excretion after dosing [3] [h] | Tmax ([3]; 350 mg/kg) [h] | Tmax ([3]; 1000 mg/kg) [h] | Qualitative Tmax (urine collection with greatest excretion) ([3]; High dose (1000 mg/kg bw)) [h] | Qualitative Tmax (urine collection with greatest excretion) ([3]; Medium dose (350 mg/kg bw)) [h] | further results
COc1cc(/C=C/C(=O)O)ccc1O [Ferulic acid, ferulic acid] | trace | np | np | 11.7 ± 3.0 |  |  |  |  |  |  |  |  |  |  |  |  |  | 0 to 24 | 0 to 24 | 
